Source: publication PMC9478491, “Therapeutic effects and mechanisms of N-(9,10-anthraquinone-2-ylcarbonyl) xanthine oxidase inhibitors on hyperuricemia” (Frontiers in Pharmacology, 2022)
“And” between values parts separate entries of the source, which are not always exact repeats. Equal values may be shown once. Read-outs that look alike come from different tables or passages of the source.

Key:
[1] = test system: TNF-α, IL-6, IL-1β, NLRP3; test: TNF-α, IL-6, IL-1β, NLRP3 in HK-2 culture supernatant (ELISA); type: cell-based, human; conditions: HK-2 cells, allopurinol 100 μmol/L, p < 0.01
Description: The culture, induction, and administration of hyperuricemia HK-2 cells were the same as described earlier. Finally, the supernatant of the culture medium was collected to detect the levels of inflammatory factors. ELISA kits were used to detect the supernatant TNF-α, IL-6, IL-1β, and NLRP3 levels of the culture medium.

AML12 cells = test: Culture supernatant UA level of hyperuricemia AML12 cells; type: cell-based, mouse; conditions: allopurinol 100 μmol/L, p < 0.001
Procedure: AML12 cells in logarithmic growth were digested with trypsin, and cell suspension was made by pipette blowing. After counting with a blood counting plate, the cells were diluted to 10^5 cells/mL, and 1 ml of each well was inoculated in a medium dish. The cells were placed in a 5% (V/V) CO2 cell incubator at 37 °C for 24 h. 24 h later, the cell supernatant was discarded, washed with PBS for three times, and the adenosine solution prepared with the current basic medium without fetal bovine serum as the solvent was added. The dosage of adenosine was 1.5 mmol/L, and the cells were placed in the cell culture box for further incubation for 24 h. The culture dish was taken out, 0.005 IU xanthine oxidase (XO) was added to each well, and incubated in the cell incubator for 24 h, and then the hyperuricemia liver cell model was obtained.
AML12 cells were cultured in complete medium at 37 °C and a 5% CO2 cell incubator. Logarithmic growth cells were made into cell suspension with trypsin. The cells were inoculated into 24-well plates at the concentration of 10^5 cells/ml and cultured in a cell incubator at 37°C and 5% CO2 for 24 h. After the cells adhered to the wall, the medium in 24-well plates was discarded and washed with PBS for three times. […] After 24 h, the model and administration groups were washed with PBS for three times. […]

XOD [2] = test: Western blot, XOD protein in AML12 cells; type: cell-based, mouse; conditions: allopurinol 100 μmol/L, p < 0.01
Procedure: The total protein of HK-2 cells and AML12 cells were extracted with total protein extraction kit, and the concentration was determined by the BCA kit. Electrophoresis, membrane transfer, antibody incubation, and other operations were performed in accordance with the Western blot experiment procedures. The protein bands were quantified by ImageJ software and normalized to individual β-actin expression levels.

[3] = test system: potassium oxonate-induced hyperuricemia mice; test: Morphology (HE) of renal and liver tissue in hyperuricemia mice; type: in vivo, mouse; conditions: allopurinol 10 mg/kg
Description: The liver and kidney tissues fixed in paraformaldehyde were dehydrated to be transparent. Then put the transparent tissue block into the melted paraffin, and embed it after the paraffin is completely immersed in the tissue block. Fix the embedded wax block on the microtome and cut it into 5 μm thin slices. The thin slice is ironed in hot water, then pasted on the glass slide, and dried. Before staining, paraffin wax in the sections was removed with xylene, then soaked with high to low concentration alcohol, and finally soaked in distilled water for 2 min. The dewaxed and rehydrated slices were stained in hematoxylin solution for several minutes and then washed with running water. Then put the slices into 1% hydrochloric alcohol (5–10 s) and rinse with tap water, after rinsing, place the slices in distilled water. After 2 min, the slices were removed and dehydrated with […]. After dehydration, the slices were stained with alcohol eosin solution for 2–3 min. After dehydration by alcohol, xylene was used to make the slices transparent. Finally, the transparent slices were dripped with gum and sealed with a cover glass.
Potassium oxonate (model drug), NAY (drug to be tested), and allopurinol (positive drug) were dissolved or suspended in double steaming water. […]

XOD [4] = type: cell-based, mouse; conditions: AML12 cells, allopurinol 100 μmol/L, p < 0.001
HK-2 cells = test: Culture supernatant UA level of hyperuricemia HK-2 cells; type: cell-based, human; conditions: allopurinol 100 μmol/L
Procedure: According to the establishment method of HK-2 cells, hyperuricemia model was reported in the literature ([Hou et al., 2019]), and HK-2 cells was cultured in a complete medium in a 5% CO2, 37°C cell incubator. The cells in the logarithmic growth phase were inoculated on a 24-well plate at a concentration of 10^5 cells/ml. The cells were cultured in a 37 °C incubator for 24 h. 24 h later, discard the culture medium, and wash cells by PBS for three times. Add 2.5 mmol/L adenosine solution prepared from the incomplete medium to each well and incubate in the incubator for 24 h. Then 0.005 IU/mg XO solution was added to each well in the 24-well plate, and the supernatant was collected after incubation for 12 h. The absorbance was measured on the microplate reader using the UA kit.
Hk-2 cells were cultured in a 5% CO2 cell incubator at 37 °C in complete medium. The cells in the logarithmic growth phase were inoculated on a 24-well plate at a concentration of 10^5 cells/ml and cultured in a 5% CO2 cell incubator at 37°C for 24 h. After 24 h, the culture medium was discarded and washed with PBS for three times. […] After 24 h, the model and drug administration groups were washed with PBS for three times, and the model and drug administration groups were added with 2.5 mmol/L adenosine solution prepared with incomplete whole medium and incubated in an incubator for 24 h. […]

[5] = test system: potassium oxonate-induced hyperuricemia mice; test: UA, CRE and BUN in serum and urine of hyperuricemia mice; type: in vivo, mouse; conditions: allopurinol 10 mg/kg gavage, 7 days
Procedure: Ninety SPF male KM mice (20 ± 2 g) were maintained in a normally controlled breeding room with standard laboratory food and water for 1 week prior to the experiments. The uricase inhibitor potassium oxonate was used to induce hyperuricemia in mice, according to previous reports ([Chen et al., 2019]).
Potassium oxonate (model drug), NAY (drug to be tested), and allopurinol (positive drug) were dissolved or suspended in double steaming water. The drug dose used is expressed in “mg/kg.” The dose given for each dose is converted based on the body surface area conversion method. […] Except the normal control mice, others were orally administered by 250 mg/kg potassium oxonate once daily for seven consecutive days to induce hyperuricemia. […] After 7 days’ treatment, diets were removed from the cages 12 h before the animals were sacrificed. The blood was allowed to clot for approximately 1 h at room temperature and centrifuged at 3,000 rpm for 10 min to obtain serum. Serum was divided into three portions, one to detect biochemical markers such as UA, one to detect inflammatory factors, and the remaining stored at−20°C as a backup. […]
The levels of serum UA, CRE, and BUN were measured by using the method recommended in the purchase kit. The levels of serum TNF-α, IL-6, and NLRP3 were measured by using the method recommended in the ELISA kits.

[6] = Pharmacokinetics in rats (HPLC-MS/MS, WinNonlin); type: in vivo, SD rats
Procedure: The volume of intravenous administration was 1 ml/250 g, and the volume of oral administration was 1 ml/100 g. Whole blood was collected at 2, 5, 10, 20, 30, 60, 120, 240, 360, 480, 720, and 1440 min after intravenous administration. The rats’ blood was transferred to the heparinized test tube. The whole blood was centrifuged at 8,000 rpm for 5 min, and the plasma was separated and stored in a refrigerator at -80°C for testing.

patients = test system: patients; set-up: method as in Madero et al., 2009; Liu et al., 2016; conditions: patients taking allopurinol; ref Madero et al., 2009; Liu et al., 2016; cited from earlier work
rats = test system: rats; set-up: method as in Izmerov et al., 1982; conditions: ref Izmerov et al., 1982; cited from earlier work
mice = test system: mice; set-up: method as in Izmerov et al., 1982; conditions: ref Izmerov et al., 1982; cited from earlier work
[7] = allopurinol, rats, gavage 50 mg/kg, n = 3
[8] = allopurinol, rats, gavage 50 mg/kg, single animals, 50 mg/kg
[9] = allopurinol, rats, intravenous injection 5 mg/kg, single animals, 5 mg/kg

Oc1ncnc2[nH]ncc12 [allopurinol]
IL-6 level in medium supernatant [1]: could reduce the IL-6 level | TNF-α level in medium supernatant [1]: significantly reduced the TNF-α level | supernatant UA level vs model group (AML12 cells): effect of the allopurinol group on reducing XOD viability and the level of supernatant UA were obvious | XOD protein expression vs model group (XOD [2]): significantly reduced | liver tissue morphology (HE) [3]: many inflammatory cell infiltrates with a small number of hepatocyte necrosis | renal tissue morphology (HE) [3]: Renal cortical inflammatory cell infiltration and marked tubular luminal expansion | XOD activity vs model group (XOD [4]): effect of the allopurinol group on reducing XOD viability and the level of supernatant UA were obvious | UA levels in hyperuricemia cell model (HK-2 cells): could reduce UA levels | serum UA, CRE and BUN levels vs model group [5]: obviously decreased the aforementioned indexes | AUC(0-t) ([6]; SD, rat, plasma, iv, 5 mg/kg, allopurinol, rats, intravenous injection 5 mg/kg, n = 3, read-out: AUC (0–t), Average): 1540 ng·h/mL | AUC(0-inf) ([6]; SD, rat, plasma, iv, 5 mg/kg, allopurinol, rats, intravenous injection 5 mg/kg, n = 3, read-out: AUC (0–∞), Average): 1590 ng·h/mL | MRT inf ([6]; SD, rat, plasma, iv, 5 mg/kg, allopurinol, rats, intravenous injection 5 mg/kg, n = 3, read-out: MRT (0–∞), Average): 0.27 h | AUC(0-t) ([6]; SD, rat, plasma, iv, 5 mg/kg, allopurinol, rats, intravenous injection 5 mg/kg, single animals, read-out: AUC (0–t), individual rats 1-3): 1600 ng·h/mL | AUC(0-inf) ([6]; SD, rat, plasma, iv, 5 mg/kg, allopurinol, rats, intravenous injection 5 mg/kg, single animals, read-out: AUC (0–∞), individual rats 1-3): 1650 ng·h/mL | MRT inf ([6]; SD, rat, plasma, iv, 5 mg/kg, allopurinol, rats, intravenous injection 5 mg/kg, single animals, read-out: MRT (0–∞), individual rats 1-3): 0.27 h | AUC(0-inf) ([6]; SD, rat, plasma, iv, 5 mg/kg, allopurinol, rats, intravenous injection 5 mg/kg, read-out: AUC0-∞): 1590 ± 139 ng·h/mL | concentration at 2 min ([6]; SD, rat, plasma, iv, 5 mg/kg, read-out: C2min (drug concentration in plasma)): 5280 ± 686 ng/mL | k el ([6]; SD, rat, plasma, iv, 5 mg/kg, read-out: elimination rate constant K (converted)): 0.000964 s⁻¹ | bioavailability ([6]; SD, rat, plasma, oral, 50 mg/kg, read-out: F): 158% | AUC(0-t) ([6]; SD, rat, plasma, po, 50 mg/kg, allopurinol, rats, gavage 50 mg/kg, n = 3, read-out: AUC (0–t), Average): 24500 ng·h/mL | AUC(0-inf) ([6]; SD, rat, plasma, po, 50 mg/kg, allopurinol, rats, gavage 50 mg/kg, n = 3, read-out: AUC (0–∞), Average): 25100 ng·h/mL | Cmax ([6]; SD, rat, plasma, po, 50 mg/kg, allopurinol, rats, gavage 50 mg/kg, n = 3, read-out: Cmax, Average): 6610 ng/mL | MRT inf ([6]; SD, rat, plasma, po, 50 mg/kg, allopurinol, rats, gavage 50 mg/kg, n = 3, read-out: MRT (0–∞), Average): 2.36 h | AUC(0-t) ([6]; SD, rat, plasma, po, 50 mg/kg, allopurinol, rats, gavage 50 mg/kg, single animals, read-out: AUC (0–t), individual rats 1-3): 27500 ng·h/mL | AUC(0-inf) ([6]; SD, rat, plasma, po, 50 mg/kg, allopurinol, rats, gavage 50 mg/kg, single animals, read-out: AUC (0–∞), individual rats 1-3): 28700 ng·h/mL | Cmax ([6]; SD, rat, plasma, po, 50 mg/kg, allopurinol, rats, gavage 50 mg/kg, single animals, read-out: Cmax, individual rats 1-3): 6100 ng/mL | MRT inf ([6]; SD, rat, plasma, po, 50 mg/kg, allopurinol, rats, gavage 50 mg/kg, single animals, read-out: MRT (0–∞), individual rats 1-3): 2.88 h | Tmax ([6]; SD, rat, plasma, po, 50 mg/kg, read-out: Tmax, individual rats 1-3): 1 h | bioavailability ([6]; SD, rat, plasma, po, 50 mg/kg, read-out: calculated bioavailability): 158% | Tmax, Average [6, 7]: 1.00 h | V/F, Average [6, 7]: 3.18 L/kg | Tmax, individual rats 1-3 ([6]; allopurinol, rats, gavage 50 mg/kg, single animals): 1.00 h | AUC (0–t), individual rats 1-3 [6, 8]: 19623.63 ng·h/mL and 26462.91 ng·h/mL | AUC (0–∞), individual rats 1-3 [6, 8]: 20029.34 ng·h/mL and 26666.72 ng·h/mL | Cmax, individual rats 1-3 [6, 8]: 5,968.97 ug/L and 7742.83 ug/L | MRT (0–∞), individual rats 1-3 [6, 8]: 1.84 h and 2.35 h | V/F, individual rats 1-3 [6, 8]: 3.19 L/kg and 3.81 L/kg and 2.53 L/kg | V, Average ([6]; allopurinol, rats, intravenous injection 5 mg/kg, n = 3): 0.92 L/kg | AUC (0–t), individual rats 1-3 [6, 9]: 1383.23 ng·h/mL and 1648.60 ng·h/mL | AUC (0–∞), individual rats 1-3 [6, 9]: 1432.09 ng·h/mL and 1687.42 ng·h/mL | MRT (0–∞), individual rats 1-3 [6, 9]: 0.29 h | V, individual rats 1-3 [6, 9]: 0.91 L/kg and 1.05 L/kg and 0.81 L/kg | patients who can reduce serum UA concentration to the target level (patients): less than 40%

O=C1c2ccccc2C(=O)c2ccccc21 [AQ, 9,10-anthraquinone]
acute oral toxicity LD50 (rats): > 5,000 mg/kg BW | acute oral toxicity LD50 (mice): > 5,000 mg/kg BW
